From patent US8987193B2, “Nisin derivatives and the use thereof” (University College Cork—National University of Ireland, Cork, priority 2008, dated 2015)
Ends that are not written are not given here.

Columns and labels:
Staph. aureus DPC5245 = assay: Deferred antagonism assay; format: cell-based; conditions: producing strain; diameter of zone minus 5 mm; average of duplicates; St. aureus DPC5245
Protocol: (§1) Deferred antagonism assays were performed by replicating strains on GM17 or GM17 x-gal agar plates and allowing them to grow overnight before overlaying with either GM17/BHI/TS/MH agar (0.75% w/v agar) seeded with the appropriate indicator strain. Zone size was calculated as the diameter of the zone of clearing minus the diameter of bacterial growth (5 mm) For higher throughput screening of N20PXX, XM21VX, XXK22T and XXX banks deferred antagonism assays were performed by replicating strains using a 96 pin replicator (Boekel) or spotting 5 μl of a fresh overnight culture on GM17 agar plates and allowing them to grow overnight. […] Additional sets of indicators were employed to further assess/reassess the bioactivity of a number of strains. […] For well-diffusion assays molten agar was cooled to 48° C. and seeded with the appropriate indicator strain. The inoculated medium was rapidly transferred into sterile Petri plates in 50 ml volumes, allowed to solidify and dried. Wells (4.6 mm in diameter) were then made in the seeded plates. Purified nisin and mutant nisins were resuspended in 0.005% acetic acid, serially diluted, 50 μl volumes were dispensed into the aforementioned wells and the plates incubated at 37° C. overnight. Bioactivity was expressed as arbitrary units/ml (AU/ml) and calculated as the reciprocal of the highest dilution that gave a definite zone multiplied by the conversion factor (i.e. 20 when 50 μl was used) (Ryan et al., 1996).
(§2) As a consequence of the enhanced activities of K22T and K22S, a more in-depth investigation of this region was carried out. Saturation mutagenesis was undertaken to create a bank of nisin A hinge derivatives containing the vast majority of possible amino acid substitutions for each position. Although pPTPL was used successfully for random mutagenesis, its relatively large size of approx 10.5 kb was considered unsuitable for the complete plasmid PCR amplification approach utilized for saturation mutagenesis. A smaller (approx 6 kb) E. coli-L. lactis shuttle vector pCI372 was considered to be potentially more useful. Its suitability with respect to the in trans expression of nisA was confirmed by the ability of pDFO5 to restore the nisin positive phenotype. Saturation mutagenesis was performed on each codon using pDF05 and oligonucleotides (Table 5) that replace the specific codon with a NNK triplet, potentially encoding all 20 standard amino acids. Following complete plasmid amplification and introduction into the intermediate Top10 host, sequence analysis of a pooled bank of pDF05 derivatives confirmed randomization. Introduction of these variants into L. lactis NZ9800 allowed the expression of mutant nisin A peptides for further analysis. […] 46 residue conversions were isolated. All strains, regardless of bioactivity, were assessed with a view to comprehensively assessing the consequences of each individual hinge alteration.
(§3) Values are an average of duplicate experiments and represent zone size (diameter of zone minus diameter of bacterial growth (i.e. 5 mm) relative to that of the NZ9800 pCI372nisA control. X=Mutants not identified.

[1] = system: Staph. aureus ST528 (MRSA); assay: Deferred antagonism assay; format: cell-based; conditions: producing strain, diameter of zone minus diameter of bacterial growth (5 mm), average of duplicates
Protocol: as §1, §2, §3

[2] = system: Strep. agalactiae ATCC13813; assay: Deferred antagonism assay; format: cell-based; conditions: producing strain, diameter of zone minus 5 mm, average of duplicates
Protocol: as §1, §2, §3

L. monocytogenes CBC1 = assay: Deferred antagonism assay; format: cell-based, Listeria monocytogenes; parameters: key: + = Enhanced bioactivity relative to control; − = Bioactivity equal to or less than control; NA = no activity evident; conditions: producing strain; L. mono CBC1
How it was run: (§4)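 Producer strains replicated on GM17 or GM17 x-gal agar, grown overnight, then overlaid with 0.75% agar seeded with indicator strain. Zone size = diameter of clearing minus 5 mm growth diameter. Purified nisins tested by well diffusion at 37° C overnight; activity in AU/ml from reciprocal of highest active dilution × 20.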

L. monocytogenes CBC2 = assay: Deferred antagonism assay; format: cell-based, Listeria monocytogenes; parameters: key: + = Enhanced bioactivity relative to control; − = Bioactivity equal to or less than control; NA = no activity evident; conditions: producing strain; L. mono CBC2
How it was run: as §4

L. monocytogenes CBC3 = assay: Deferred antagonism assay; format: cell-based, Listeria monocytogenes; parameters: key: + = Enhanced bioactivity relative to control; − = Bioactivity equal to or less than control; NA = no activity evident; conditions: producing strain; L. mono CBC3
How it was run: as §4

L. lactis CBC7 = assay: Deferred antagonism assay; format: cell-based; parameters: key: + = Enhanced bioactivity relative to control; − = Bioactivity equal to or less than control; NA = no activity evident; conditions: producing strain
How it was run: as §4

L. lactis CBC8 = assay: Deferred antagonism assay; format: cell-based; parameters: key: + = Enhanced bioactivity relative to control; − = Bioactivity equal to or less than control; NA = no activity evident; conditions: producing strain
How it was run: as §4

S. aureus CBC4 = assay: Deferred antagonism assay; format: cell-based; parameters: key: + = Enhanced bioactivity relative to control; − = Bioactivity equal to or less than control; NA = no activity evident; conditions: producing strain
How it was run: as §4

C. sporogenes CBC5 = assay: Deferred antagonism assay; format: cell-based, Clostridium sporogenes; parameters: key: + = Enhanced bioactivity relative to control; − = Bioactivity equal to or less than control; NA = no activity evident; conditions: producing strain
L. plantarum CBC6 = assay: Deferred antagonism assay; format: cell-based, Lactobacillus plantarum; parameters: key: + = Enhanced bioactivity relative to control; − = Bioactivity equal to or less than control; NA = no activity evident; conditions: producing strain
How it was run: as §4

indicator strains = assay: Deferred antagonism assays, various indicator strains (summary); format: cell-based; conditions: in general / against the strains tested
How it was run: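 Producer strains were replicated on GM17 or GM17 x-gal agar, grown overnight, then overlaid with GM17, BHI, TS or MH soft agar (0.75% w/v) seeded with the indicator strain. Zone size was taken as the clearing diameter minus the diameter of bacterial growth (5 mm).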

Substance | zone size relative to that of the NZ9800 pCI372nisA control (Staph. aureus DPC5245) [%] | zone size relative to that of the NZ9800 pCI372nisA control [1] [%] | zone size relative to that of the NZ9800 pCI372nisA control [2] [%] | Bioactivity relative to control (L. monocytogenes CBC1) | Bioactivity relative to control (L. monocytogenes CBC2) | Bioactivity relative to control (L. monocytogenes CBC3) | Bioactivity relative to control (L. lactis CBC7) | Bioactivity relative to control (L. lactis CBC8) | Bioactivity relative to control (S. aureus CBC4) | Bioactivity relative to control (C. sporogenes CBC5) | Bioactivity relative to control (L. plantarum CBC6) | bioactivity of the producing strain, in words (indicator strains)
K22D: nisin A derivative, hinge substitution K22D; peptide not detected by CMS (ITSISLCTPGCKTGALMGCNMDTATCHCSIHVSK; cysteine pairing not given here; also: lantibiotic nisin-A; UniProt P13068 24-57, looked up, variant K22D) | 0 | 0 | 0 | − | − | − | − | − | − | − | − | devoid of bioactivity
K22F: nisin A derivative, hinge substitution K22F (ITSISLCTPGCKTGALMGCNMFTATCHCSIHVSK; cysteine pairing not given here; also: lantibiotic nisin-A; UniProt P13068 24-57, looked up, variant K22F) | 56 | 29 | 57 | − | − | − | − | − | − | − | − | 
K22H: nisin A derivative, hinge substitution K22H (ITSISLCTPGCKTGALMGCNMHTATCHCSIHVSK; cysteine pairing not given here; also: lantibiotic nisin-A; UniProt P13068 24-57, looked up, variant K22H) | 97 | 97 | 104 | − | − | − | − | − | − | − | − | 
M21E: nisin A derivative, hinge substitution M21E (ITSISLCTPGCKTGALMGCNEKTATCHCSIHVSK; cysteine pairing not given here; also: lantibiotic nisin-A; UniProt P13068 24-57, looked up, variant M21E) | 0 | 0 | 0 | − | − | − | − | − | − | − | − | loss of bioactivity
M21F: nisin A derivative, hinge substitution M21F (ITSISLCTPGCKTGALMGCNFKTATCHCSIHVSK; cysteine pairing not given here; also: lantibiotic nisin-A; UniProt P13068 24-57, looked up, variant M21F) | 21.5 | 20 | 0 | − | − | − | − | − | − | − | − | 
M21P: nisin A derivative, hinge substitution M21P (ITSISLCTPGCKTGALMGCNPKTATCHCSIHVSK; cysteine pairing not given here; also: lantibiotic nisin-A; UniProt P13068 24-57, looked up, variant M21P) | 32 | 40 | 0 | − | − | − | − | − | − | − | − | 
M21W: nisin A derivative, hinge substitution M21W (ITSISLCTPGCKTGALMGCNWKTATCHCSIHVSK; cysteine pairing not given here; also: lantibiotic nisin-A; UniProt P13068 24-57, looked up, variant M21W) | 14 | 12 | 0 | − | − | − | − | − | − | − | − | 
N20L: nisin A derivative, hinge substitution N20L (ITSISLCTPGCKTGALMGCLMKTATCHCSIHVSK; cysteine pairing not given here; also: lantibiotic nisin-A; UniProt P13068 24-57, looked up, variant N20L) | 69.5 | 43 | 69 | − | − | − | − | − | − | − | − | retention of relatively high levels of bioactivity
